# Laboratory results reported in US12285012B2, “Compositions comprising pyridine carboxylate herbicides with acetolactate synthase (ALS) inhibitor herbicides” (Corteva Agriscience LLC, priority 2018, dated 2025).
# Several values for one entry are separate records, joined by “and”; a condition that tells them apart may be missing. Equal values may be shown once. Read-outs that look alike come from different tables or passages of the source.
# Experiments:
# [1] = test system: Russian thistle (SASKR, Salsola kali); experiment: Greenhouse postemergence herbicidal effect; type: in vivo
# How it was run: (§1)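 Plants at the second or third true leaf stage, grown at about 23/22 °C day/night with a 14 h photoperiod, were sprayed postemergence. Emulsifiable concentrates held cloquintocet-mexyl safener at 120 g ai/L; rates are g ae/ha (pyridine carboxylate) or g ai/ha (ALS inhibitor). Injury was scored visually against solvent-blank controls at 20-22 d (0-100%).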
# [2] = test system: wild buckwheat (POLCO, Polygonum convolvulus); experiment: Greenhouse postemergence herbicidal effect; type: in vivo
# How it was run: as §1
# [3] = test system: wild pansy (VIOTR, Viola tricolor); experiment: Greenhouse postemergence herbicidal effect; type: in vivo
# How it was run: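 Injury was rated visually after 20-22 d on a 0 (none) to 100% (complete kill) scale relative to solvent-sprayed controls, with sub-irrigation to avoid wash-off. Rates were given in g ae/ha or g ai/ha depending on component.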
# [4] = test system: pineapple weed (MATMT, Matricaria discoidea); experiment: Greenhouse postemergence herbicidal effect; type: in vivo
# How it was run: as §1
# [5] = test system: Canadian thistle (CIRAR, Cirsium arvense); experiment: Greenhouse postemergence herbicidal effect; type: in vivo
# How it was run: as §1
# [6] = test system: wild chamomile (MATCH, Matricaria chamomilla); experiment: Greenhouse postemergence herbicidal effect; type: in vivo
# How it was run: as §1
# [7] = test system: winter rape (BRSNW, Brassica napus); experiment: Greenhouse postemergence herbicidal effect; type: in vivo
# How it was run: as §1
# [8] = test system: pigweed (AMARE, Amaranthus retroflexus); experiment: Greenhouse postemergence herbicidal effect; type: in vivo
# How it was run: as §1
# [9] = test system: chickweed (STEME, Stellaria media); experiment: Greenhouse postemergence herbicidal effect; type: in vivo
# How it was run: as §1
# spring wheat (TRZAS) = type: in vivo, Triticum aestivum; settings: for % visual injury Obs-Exp: Pyroxsulam 0
# How it was run: as §1
# spring barley (HORVS) = type: in vivo, Hordeum vulgare
# How it was run: as §1
# [10] = Compound A 10 g/ha (Examples 62-63)
# [11] = Compound A 10 g/ha, safener mefenpyr-diethyl
smiles,measurement,setting,value
"N#CCOC(=O)c1nc(-c2ccc3cc[nH]c3c2F)c(F)c(N)c1Cl [Compound A, cyanomethyl 4-amino-3-chloro-5-fluoro-6-(7-fluoro-1H-indol-6-yl)pyridine-2-carboxylate]","% visual injury, Obs",[1]; 10 g/ha,60% and 63%
same,% visual injury,[1]; Compound A 10 g/ha,70% and 63%
same,% visual injury Obs,[1]; Compound A 10 g/ha,60% and 63%
same,"% visual injury, Obs",[1]; Compound A 10 g/ha,65%
same,SASKR % visual injury Obs,[1]; [10],65%
same,% visual injury,[1]; Compound A 15 g/ha,75%
same,"% visual injury, Obs","[1]; SASKR, Compound A 10 g/ha",60%
same,Obs % visual injury,"[1]; SASKR, Compound A 10 g/ha",63% and 65%
same,Obs % visual injury,"[1]; SASKR, Compound A 10 g/ha (Table 65)",65%
same,Obs % visual injury,"[1]; SASKR, Compound A 10 g/ha (Table 67)",58%
same,Obs % visual injury,"[1]; SASKR, Compound A 15 g/ha (Table 67)",65%
same,"% visual injury, Obs",[2]; 10 g/ha,70%
same,% visual injury,[2]; Compound A 10 g/ha,95% and 93% and 70% and 98%
same,"% visual injury, Obs",[2]; Compound A 10 g/ha,91%
same,POLCO % visual injury Obs,[2]; [10],91%
same,"% visual injury, Obs",[2]; [11],100%
same,POLCO % visual injury Obs,[2]; [11],100%
same,% visual injury,[2]; Compound A 15 g/ha,97% and 88%
same,% visual injury Obs,[2]; Compound A 15 g/ha,88%
same,"% visual injury, Obs","[2]; POLCO, Compound A 10 g/ha",98% and 78%
same,Obs % visual injury,"[2]; POLCO, Compound A 10 g/ha (Table 65)",91%
same,Obs % visual injury,"[2]; POLCO, Compound A 10 g/ha (Table 66)",70%
same,Obs % visual injury,"[2]; POLCO, Compound A 10 g/ha (Table 67)",60%
same,"% visual injury, Obs","[2]; POLCO, Compound A 15 g/ha",88%
same,Obs % visual injury,"[2]; POLCO, Compound A 15 g/ha",88%
same,Obs % visual injury,"[2]; POLCO, Compound A 15 g/ha (Table 67)",63%
same,"% visual injury, Obs",[3]; 10 g/ha,23%
same,% visual injury,[3]; Compound A 10 g/ha,10%
same,"% visual injury, Obs",[3]; [11],18%
same,VIOTR % visual injury Obs,[3]; [11],18%
same,% visual injury,[3]; Compound A 15 g/ha,10%
same,% visual injury,[4]; Compound A 10 g/ha,15%
same,% visual injury,[4]; Compound A 15 g/ha,30%
same,Obs % visual injury,"[5]; CIRAR, Compound A 10 g/ha (Table 65)",20%
same,Obs % visual injury,"[5]; CIRAR, Compound A 10 g/ha (Table 66)",30%
same,Obs % visual injury,"[5]; CIRAR, Compound A 15 g/ha",55%
same,pest or weed control at 10 g/ha,"[5]; Cirsium arvense, post-emergence, 10 g/ha, read-out: % visual injury, Obs",43%
same,pest or weed control at 10 g/ha,"[5]; Cirsium arvense, post-emergence, CIRAR, Compound A 10 g/ha, read-out: % visual injury, Obs",33%
same,pest or weed control at 15 g/ha,"[5]; Cirsium arvense, post-emergence, CIRAR, Compound A 15 g/ha, read-out: % visual injury, Obs",55%
same,pest or weed control at 10 g/ha,"[5]; Cirsium arvense, post-emergence, Compound A 10 g/ha, read-out: % visual injury, Obs",20%
same,pest or weed control at 10 g/ha,"[5]; Cirsium arvense, post-emergence, Compound A 10 g/ha, safener mefenpyr-diethyl, read-out: % visual injury, Obs",43%
same,% visual injury,[5]; Compound A 10 g/ha,40% and 60% and 30% and 33%
same,% visual injury Obs,[5]; Compound A 10 g/ha,33% and 55%
same,CIRAR % visual injury Obs,[5]; [10],20%
same,CIRAR % visual injury Obs,[5]; [11],43%
same,% visual injury,[5]; Compound A 15 g/ha,65% and 55%
same,% visual injury Obs,[5]; Compound A 15 g/ha,55%
same,% visual injury,[6]; Compound A 10 g/ha,40% and 30% and 45%
same,"% visual injury, Obs",[6]; Compound A 10 g/ha,13%
same,MATCH % visual injury Obs,[6]; [10],13%
same,% visual injury,[6]; Compound A 15 g/ha,50% and 45%
same,% visual injury Obs,[6]; Compound A 15 g/ha,45%
same,Obs % visual injury,"[6]; MATCH, Compound A 10 g/ha (Table 65)",13%
same,Obs % visual injury,"[6]; MATCH, Compound A 10 g/ha (Table 66)",30%
same,Obs % visual injury,"[6]; MATCH, Compound A 10 g/ha (Table 67)",15%
same,"% visual injury, Obs","[6]; MATCH, Compound A 15 g/ha",45%
same,Obs % visual injury,"[6]; MATCH, Compound A 15 g/ha",45%
same,Obs % visual injury,"[6]; MATCH, Compound A 15 g/ha (Table 67)",10%
same,"% visual injury, Obs",[7]; 10 g/ha,68%
same,"% visual injury, Obs","[7]; BRSNW, Compound A 10 g/ha",45%
same,Obs % visual injury,"[7]; BRSNW, Compound A 10 g/ha",45% and 40%
same,Obs % visual injury,"[7]; BRSNW, Compound A 10 g/ha (Table 66)",68%
same,Obs % visual injury,"[7]; BRSNW, Compound A 10 g/ha (Table 67)",60%
same,"% visual injury, Obs","[7]; BRSNW, Compound A 15 g/ha",73%
same,Obs % visual injury,"[7]; BRSNW, Compound A 15 g/ha",73%
same,Obs % visual injury,"[7]; BRSNW, Compound A 15 g/ha (Table 67)",75%
same,% visual injury,[7]; Compound A 10 g/ha,75% and 43% and 68% and 45%
same,% visual injury Obs,[7]; Compound A 10 g/ha,45% and 40%
same,% visual injury,[7]; Compound A 15 g/ha,75% and 73%
same,% visual injury Obs,[7]; Compound A 15 g/ha,73%
same,"% visual injury, Obs",[8]; 10 g/ha,90%
same,"% visual injury, Obs","[8]; AMARE, Compound A 10 g/ha",75%
same,Obs % visual injury,"[8]; AMARE, Compound A 10 g/ha",75% and 85% and 100%
same,Obs % visual injury,"[8]; AMARE, Compound A 10 g/ha (Table 65)",100%
same,Obs % visual injury,"[8]; AMARE, Compound A 10 g/ha (Table 66)",90%
same,Obs % visual injury,"[8]; AMARE, Compound A 10 g/ha (Table 67)",78%
same,"% visual injury, Obs","[8]; AMARE, Compound A 15 g/ha",80%
same,Obs % visual injury,"[8]; AMARE, Compound A 15 g/ha",80%
same,Obs % visual injury,"[8]; AMARE, Compound A 15 g/ha (Table 67)",83%
same,% visual injury,[8]; Compound A 10 g/ha,73% and 90% and 75%
same,% visual injury Obs,[8]; Compound A 10 g/ha,75% and 100% and 85%
same,"% visual injury, Obs",[8]; Compound A 10 g/ha,100%
same,AMARE % visual injury Obs,[8]; [10],100%
same,"% visual injury, Obs",[8]; [11],98%
same,AMARE % visual injury Obs,[8]; [11],98%
same,% visual injury,[8]; Compound A 15 g/ha,80%
same,% visual injury Obs,[8]; Compound A 15 g/ha,80%
same,% visual injury,[9]; Compound A 10 g/ha,100%
same,"% visual injury, Obs",[9]; [11],83%
same,STEME % visual injury Obs,[9]; [11],83%
same,% visual injury,[9]; Compound A 15 g/ha,100%
same,"% visual injury, Obs",spring wheat (TRZAS); 10 g/ha,0%
same,% visual injury,spring wheat (TRZAS); Compound A 10 g/ha,0% and 3%
same,% visual injury Obs,spring wheat (TRZAS); Compound A 10 g/ha,0%
same,"% visual injury, Obs",spring wheat (TRZAS); Compound A 10 g/ha,0%
same,TRZAS % visual injury Obs,spring wheat (TRZAS); [10],0%
same,"% visual injury, Obs",spring wheat (TRZAS); [11],3%
same,TRZAS % visual injury Obs,spring wheat (TRZAS); [11],3%
same,% visual injury,spring wheat (TRZAS); Compound A 15 g/ha,0%
same,% visual injury Obs,spring wheat (TRZAS); Compound A 15 g/ha,0%
same,"% visual injury, Obs","spring wheat (TRZAS); TRZAS, Compound A 10 g/ha",0%
same,Obs % visual injury,"spring wheat (TRZAS); TRZAS, Compound A 10 g/ha",0%
same,Obs % visual injury,"spring wheat (TRZAS); TRZAS, Compound A 10 g/ha (Table 65)",0%
same,Obs % visual injury,"spring wheat (TRZAS); TRZAS, Compound A 10 g/ha (Table 66)",0%
same,Obs % visual injury,"spring wheat (TRZAS); TRZAS, Compound A 10 g/ha (Table 67)",3%
same,"% visual injury, Obs","spring wheat (TRZAS); TRZAS, Compound A 15 g/ha",0%
same,Obs % visual injury,"spring wheat (TRZAS); TRZAS, Compound A 15 g/ha",0%
same,Obs % visual injury,"spring wheat (TRZAS); TRZAS, Compound A 15 g/ha (Table 67)",0%
same,% visual injury Obs-Exp,spring wheat (TRZAS); printed under Compound A 10 g/ha,0%
same,% visual injury Obs-Exp,spring wheat (TRZAS); printed under Compound A 15 g/ha,0%
same,"% visual injury, Obs",spring barley (HORVS); 10 g/ha,0%
same,% visual injury,spring barley (HORVS); Compound A 10 g/ha,0%
same,% visual injury Obs,spring barley (HORVS); Compound A 10 g/ha,0%
same,"% visual injury, Obs",spring barley (HORVS); Compound A 10 g/ha,0%
same,HORVS % visual injury Obs,spring barley (HORVS); [10],0%
same,% visual injury,spring barley (HORVS); Compound A 15 g/ha,0%
same,% visual injury Obs,spring barley (HORVS); Compound A 15 g/ha,0%
same,"% visual injury, Obs","spring barley (HORVS); HORVS, Compound A 10 g/ha",0%
same,Obs % visual injury,"spring barley (HORVS); HORVS, Compound A 10 g/ha",0%
same,Obs % visual injury,"spring barley (HORVS); HORVS, Compound A 10 g/ha (Table 65)",0%
same,Obs % visual injury,"spring barley (HORVS); HORVS, Compound A 10 g/ha (Table 66)",0%
same,Obs % visual injury,"spring barley (HORVS); HORVS, Compound A 10 g/ha (Table 67)",5%
same,"% visual injury, Obs","spring barley (HORVS); HORVS, Compound A 15 g/ha",0%
same,Obs % visual injury,"spring barley (HORVS); HORVS, Compound A 15 g/ha",0%
same,Obs % visual injury,"spring barley (HORVS); HORVS, Compound A 15 g/ha (Table 67)",3%
